Laboratory results as given in patent publication US9062078B2, “Substituted 7-azabicyles and their use as orexin receptor modulators” (priority 2013, dated 2015).
Where two headings read alike, the source gives them in different places.

Experiments:
rat orexin 1 receptor = rat orexin 1 receptor (Rattus norvegicus, UniProt P56718); assay: Rat orexin 1 receptor radioligand binding (competitive, [3H]-SB674042, HEK293 cell preparations)
human orexin 2 receptor = human orexin 2 receptor (Homo sapiens (Human), UniProt O43614); assay: Human orexin 2 receptor radioligand binding (competitive, [3H]-EMPA, HEK293 cell preparations)
[1] = rat orexin 1 receptor, [3H]-SB674042 competition binding, read-out: rOX1 Ki (nm)
[2] = human orexin 2 receptor, [3H]-EMPA competition binding, read-out: hOX2 Ki (nm)

Chain of human orexin 2 receptor (O43614 whole entry): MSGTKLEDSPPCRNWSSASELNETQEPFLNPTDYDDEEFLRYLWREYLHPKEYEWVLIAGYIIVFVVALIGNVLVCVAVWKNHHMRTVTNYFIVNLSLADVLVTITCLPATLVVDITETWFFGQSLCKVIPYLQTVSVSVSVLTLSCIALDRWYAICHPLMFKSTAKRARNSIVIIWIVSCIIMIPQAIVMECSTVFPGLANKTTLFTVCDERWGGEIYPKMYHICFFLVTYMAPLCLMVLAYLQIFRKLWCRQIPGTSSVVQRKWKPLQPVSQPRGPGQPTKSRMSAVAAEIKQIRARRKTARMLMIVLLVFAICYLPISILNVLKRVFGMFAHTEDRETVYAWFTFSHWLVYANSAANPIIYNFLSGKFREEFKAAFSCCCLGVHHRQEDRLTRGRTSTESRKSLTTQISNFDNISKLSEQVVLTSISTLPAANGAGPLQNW

| Structure (SMILES) | Ki (rat orexin 1 receptor; [1]) | Ki (human orexin 2 receptor; [2]) | Ki (rat orexin 1 receptor; rOX1 Ki (nm)) | Ki (human orexin 2 receptor; hOX2 Ki (nm)) |
| --- | --- | --- | --- | --- |
| CCOc1ccnc(Cl)c1C(=O)N1C2CCC1C(COc1ccccn1)C2 (racemic) [Example 162, (±)-(2-chloro-4-ethoxypyridin-3-yl)(2-((pyridin-2-yloxy)methyl)-7-azabicyclo[2.2.1]heptan-7-yl)methanone] | 8.5 µM | > 10 µM | – | – |
| O=C(c1cc(F)ccc1-n1nccn1)N1C2CCC1C(CNc1cnc3ccccc3n1)C2 (racemic) [Example 174, (±)-(5-fluoro-2-(2H-1,2,3-triazol-2-yl)phenyl)(2-((quinoxalin-2-ylamino)methyl)-7-azabicyclo[2.2.1]heptan-7-yl)methanone] | 0.373 µM | 1 µM | – | – |
| Cc1ccc(-c2ncccn2)c(C(=O)N2C3CCC2C(COc2ncc(F)cn2)C3)n1 (racemic) [Example 175, (±)-(2-(((5-fluoropyrimidin-2-yl)oxy)methyl)-7-azabicyclo[2.2.1]heptan-7-yl)(6-methyl-3-(pyrimidin-2-yl)pyridin-2-yl)methanone] | – | 4 µM | 2.5 µM | – |
| Cc1coc(-c2ccc(C)nc2C(=O)N2C3CCC2C(COc2ccc(F)cn2)C3)n1 (racemic) [Example 177, (±)-(2-(((5-fluoropyridin-2-yl)oxy)methyl)-7-azabicyclo[2.2.1]heptan-7-yl)(6-methyl-3-(4-methyloxazol-2-yl)pyridin-2-yl)methanone] | 0.535 µM | 4 µM | – | – |
| Cc1cnc(C(=O)N2C3CCC2C(Nc2cnc(C(F)(F)F)cn2)C3)c(-n2ccnn2)c1 (racemic) [Example 185, (±)-(5-methyl-3-(1H-1,2,3-triazol-1-yl)pyridin-2-yl)(2-(5-(trifluoromethyl)pyrazin-2-yl)amino)-7-azabicyclo[2.2.1]heptan-7-yl)methanone] | 1.5 µM | 2.7 µM | – | – |
| Cc1cnc(C(=O)N2C3CCC2C(Nc2ccc(C(F)(F)F)cn2)C3)c(-n2nccn2)c1 (racemic) [Example 188, (±)-(5-methyl-3-(2H-1,2,3-triazol-2-yl)pyridin-2-yl)(2-(5-(trifluoromethyl)pyridin-2-yl)amino)-7-azabicyclo[2.2.1]heptan-7-yl)methanone] | – | 1.5 µM | 0.295 µM | – |
| Cc1ccc(C(=O)N2C3CCC2C(Nc2ccc(C(F)(F)F)cn2)C3)c(-n2nccn2)n1 (racemic) [Example 189, (±)-(6-methyl-2-(2H-1,2,3-triazol-2-yl)pyridin-3-yl)(2-(5-(trifluoromethyl)pyridin-2-yl)amino)-7-azabicyclo[2.2.1]heptan-7-yl)methanone] | 0.766 µM | – | – | 1.5 µM |
| Cc1ccc(C(=O)N2C3CCC2C(Nc2ccc(C(F)(F)F)cn2)C3)c(-n2ccnn2)n1 (racemic) [Example 190, (±)-(6-methyl-2-(1H-1,2,3-triazol-1-yl)pyridin-3-yl)(2-(5-(trifluoromethyl)pyridin-2-yl)amino)-7-azabicyclo[2.2.1]heptan-7-yl)methanone] | – | 1.2 µM | 0.589 µM | – |
| COc1ccc(C(=O)N2C3CCC2C(Nc2ccc(C(F)(F)F)cn2)C3)c(-n2nccn2)c1 (racemic) [Example 191, (±)-(4-methoxy-2-(2H-1,2,3-triazol-2-yl)phenyl)(2-(5-(trifluoromethyl)pyridin-2-yl)amino)-7-azabicyclo[2.2.1]heptan-7-yl)methanone] | – | 8.8 µM | 0.257 µM | – |
| COc1c(F)cccc1C(=O)N1C2CCC1C(Nc1ccc(C(F)(F)F)cn1)C2 (racemic) [Example 193, (±)-((3-fluoro-2-methoxyphenyl)(2-(5-(trifluoromethyl)pyridin-2-yl)amino)-7-azabicyclo[2.2.1]heptan-7-yl)methanone] | 2.9 µM | > 10 µM | – | – |
| CCOc1ccc(C)nc1C(=O)N1C2CCC1C(Nc1ccc(C(F)(F)F)cn1)C2 (racemic) [Example 194, (±)-(3-ethoxy-6-methylpyridin-2-yl)(2-(5-(trifluoromethyl)pyridin-2-yl)amino)-7-azabicyclo[2.2.1]heptan-7-yl)methanone] | – | 0.8 µM | 0.45 µM | – |
| Cc1cc(C)nc(NC2CC3CCC2N3C(=O)c2nc(C)ccc2-c2ncccn2)n1 (racemic) [Example 200, (±)-(2-(((4,6-dimethylpyrimidin-2-yl)amino)-7-azabicyclo[2.2.1]heptan-7-yl)(6-methyl-3-(pyrimidin-2-yl)pyridin-2-yl)methanone] | 1.1 µM | 0.552 µM | – | – |
| Cc1cc(C)nc(NC2CC3CCC2N3C(=O)c2nc(C)ccc2-n2nccn2)n1 (racemic) [Example 201, (±)-(2-((4,6-dimethylpyrimidin-2-yl)amino)-7-azabicyclo[2.2.1]heptan-7-yl)(6-methyl-3-(2H-1,2,3-triazol-2-yl)pyridin-2-yl)methanone] | 3.7 µM | 1.1 µM | – | – |
| Cc1cc(C)nc(NC2CC3CCC2N3C(=O)c2ccccc2-n2nccn2)n1 (racemic) [Example 202, (±)-(2-(2H-1,2,3-triazol-2-yl)phenyl)(2-(((4,6-dimethylpyrimidin-2-yl)amino)-7-azabicyclo[2.2.1]heptan-7-yl)methanone] | 0.76 µM | – | – | 0.444 µM |
| CCOc1ccc(C)nc1C(=O)N1C2CCC1C(Nc1nc(C)cc(C)n1)C2 (racemic) [Example 203, (±)-(2-((4,6-dimethylpyrimidin-2-yl)amino)-7-azabicyclo[2.2.1]heptan-7-yl)(3-ethoxy-6-methylpyridin-2-yl)methanone] | > 10 µM | 0.49 µM | – | – |
| O=C(c1ccccc1-n1nccn1)N1C2CCC1C(Nc1cccc(C(F)(F)F)n1)C2 (racemic) [Example 209, (±)-(2-(2H-1,2,3-triazol-2-yl)phenyl)(2-(6-(trifluoromethyl)pyridin-2-yl)amino)-7-azabicyclo[2.2.1]heptan-7-yl)methanone] | 1.1 µM | 0.736 µM | – | – |
| O=C(c1ccccc1-n1nccn1)N1C2CCC1C(Nc1ccc(C(F)(F)F)nn1)C2 (racemic) [Example 212, (±)-(2-(2H-1,2,3-triazol-2-yl)phenyl)(2-(6-(trifluoromethyl)pyridazin-3-yl)amino)-7-azabicyclo[2.2.1]heptan-7-yl)methanone] | 0.734 µM | – | – | 4.9 µM |
| COc1ccc(NC2CC3CCC2N3C(=O)c2ccccc2-n2nccn2)nc1 (racemic) [Example 213, (±)-(2-(2H-1,2,3-triazol-2-yl)phenyl)(2-((5-methoxypyridin-2-yl)amino)-7-azabicyclo[2.2.1]heptan-7-yl)methanone] | 2.8 µM | 7.5 µM | – | – |
| Cc1ccc(NC2CC3CCC2N3C(=O)c2ccccc2-n2nccn2)nc1 (racemic) [Example 214, (±)-(2-(2H-1,2,3-triazol-2-yl)phenyl)(2-(((5-methylpyridin-2-yl)amino)-7-azabicyclo[2.2.1]heptan-7-yl)methanone] | – | – | 0.5 µM | 3.1 µM |
| O=C(c1ccccc1-n1nccn1)N1C2CCC1C(Nc1ccccn1)C2 (racemic) [Example 215, (±)-(2-(2H-1,2,3-triazol-2-yl)phenyl)(2-(pyridin-2-ylamino)-7-azabicyclo[2.2.1]heptan-7-yl)methanone] | 1.7 µM | 9 µM | – | – |
| COc1c(F)cccc1C(=O)N1C2CCC1C(Nc1ccc(Br)cn1)C2 (racemic) [Example 218, (±)-(2-((5-bromopyridin-2-yl)amino)-7-azabicyclo[2.2.1]heptan-7-yl)(3-fluoro-2-methoxyphenyl)methanone] | – | 6.7 µM | 2.7 µM | – |
| CCOc1ccc(C)nc1C(=O)N1C2CCC1C(Nc1ccc(Br)cn1)C2 (racemic) [Example 219, (±)-(2-((5-bromopyridin-2-yl)amino)-7-azabicyclo[2.2.1]heptan-7-yl)(3-ethoxy-6-methylpyridin-2-yl)methanone] | 0.257 µM | 1.7 µM | – | – |
| COc1c(F)cccc1C(=O)N1C2CCC1C(Nc1ncc(C(F)(F)F)cn1)C2 (racemic) [Example 222, (±)-(3-fluoro-2-methoxyphenyl)(2-(5-(trifluoromethyl)pyrimidin-2-yl)amino)-7-azabicyclo[2.2.1]heptan-7-yl)methanone] | – | > 10 µM | 4.8 µM | – |
| Cc1ccc(-n2nccn2)c(C(=O)N2C3CCC2C(Nc2ncc(C(F)(F)F)cn2)C3)n1 (racemic) [Example 223, (±)-(6-methyl-3-(2H-1,2,3-triazol-2-yl)pyridin-2-yl)(2-((5-(trifluoromethyl)pyrimidin-2-yl)amino)-7-azabicyclo[2.2.1]heptan-7-yl)methanone] | – | 4 µM | 0.55 µM | – |
| Cc1ccc(-c2ncccn2)c(C(=O)N2C3CCC2C(Nc2ncc(C(F)(F)F)cn2)C3)n1 (racemic) [Example 225, (±)-(6-methyl-3-(pyrimidin-2-yl)pyridin-2-yl)(2-(5-(trifluoromethyl)pyrimidin-2-yl)amino)-7-azabicyclo[2.2.1]heptan-7-yl)methanone] | 0.53 µM | 3.3 µM | – | – |
| COc1c(F)cccc1C(=O)N1C2CCC1C(Nc1ncc(C(F)(F)F)cn1)C2 (racemic) [Example 226, (±)-(3-fluoro-2-methoxyphenyl)(2-(5-(trifluoromethyl)pyrimidin-2-yl)amino)-7-azabicyclo[2.2.1]heptan-7-yl)methanone] | – | > 10 µM | > 10 µM | – |
| Cc1ccc(-n2nccn2)c(C(=O)N2C3CCC2C(Nc2ncc(C(F)(F)F)cn2)C3)n1 (racemic) [Example 228, (±)-(6-methyl-3-(2H-1,2,3-triazol-2-yl)pyridin-2-yl)(2-((5-(trifluoromethyl)pyrimidin-2-yl)amino)-7-azabicyclo[2.2.1]heptan-7-yl)methanone] | – | > 10 µM | > 10 µM | – |
| Cc1ccc(-n2nccn2)c(C(=O)N2C3CCC2C(Nc2cnc4ccccc4n2)C3)n1 (racemic) [Example 230, (±)-(6-methyl-3-(2H-1,2,3-triazol-2-yl)pyridin-2-yl)(2-(quinoxalin-2-ylamino)-7-azabicyclo[2.2.1]heptan-7-yl)methanone] | – | – | > 10 µM | > 10 µM |
| COc1c(F)cccc1C(=O)N1C2CCC1C(Nc1ccc(F)cn1)C2 (racemic) [Example 237, (±)-(3-fluoro-2-methoxyphenyl)(2-(((5-fluoropyridin-2-yl)amino)-7-azabicyclo[2.2.1]heptan-7-yl)methanone] | – | – | > 10 µM | > 10 µM |
